Experiments:
brain [1] = assay: NGS fold enrichment of synthetic library (passage 3) in BALB/c mice, first cross-species screen; type: in vivo; details: synthetic library passage 3, intravenous, relative to wild-type AAV9
Outline: (§1)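 Synthetic capsid library (passage 3) was given intravenously […] to NHPs aged 2-4 years and to BALB/c and C57Bl/6 mice (n=3 each, 6-8 weeks). After about 28 days in vivo, tissue RNA was RT-PCR amplified and NGS-sequenced; values are fold enrichment per variant relative to wild-type AAV9.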

brain [2] = assay: NGS fold enrichment of synthetic library (passage 3) in C57Bl/6 mice, first cross-species screen; type: in vivo; details: synthetic library passage 3, intravenous, relative to wild-type AAV9
Outline: as §1

[3] = system: brain, spinal cord, and DRG of the NHPs; assay: NGS fold enrichment of synthetic library (passage 3) in NHPs, first cross-species screen; type: in vivo, cynomolgus macaques (Macaca fascicularis); details: synthetic library passage 3, intravenous, relative to wild-type AAV9
Outline: as §1

brain [4] = assay: Matured TTM-001 and TTM-002 variants, NGS enrichment in mouse brain; type: in vivo, mice; details: relative to AAV9 control
[5] = system: brains, heart, liver, muscle, and DRG of the NHPs; assay: Maturation of TTM-001 and TTM-002 capsids, NGS enrichment in NHP tissues; type: in vivo; details: relative to AAV9 control
Outline: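 Variants carry mutations within and flanking the loop IV peptide insert: positions 450–466 were triplet-randomized, while positions 449–466 received low-frequency point mutations. The combined pool went into two NHPs, and each peptide was scored by NGS enrichment ratio against AAV9.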

[6] = NGS fold-enrichment, brain of mice
[7] = NGS fold-enrichment, DRG of NHPs
[8] = NGS fold-enrichment, RNA, brain of NHPs
[9] = NGS fold-enrichment, heart of NHPs
[10] = NGS fold-enrichment, liver DNA of NHPs
[11] = NGS fold-enrichment, liver RNA of NHPs
[12] = NGS fold-enrichment, muscle of NHPs
[13] = NGS fold-enrichment of matured AAV capsid variants, NHP brain, RNA

## GVSRGGPSGQNQQT
Brain [1]; RNA NGS, brain of BALB/c mice
  Fold enrichment over AAV9 in the brain of Mice (BALB/c): 0.591 fold
Brain [2]; RNA NGS, brain of C57Bl/6 mice
  Fold enrichment over AAV9 in the brain of Mice (C57Bl/6): 0.750 fold
[3]; RNA NGS, brain of NHPs
  Fold enrichment over AAV9 in the brain of NHPs: 1.028 fold
[3]; RNA NGS, spinal cord of NHPs
  Fold enrichment over AAV9 in the spinal cord of NHPs: 1.611 fold

## GVVAAHNSGQNQQT
Brain [1]; RNA NGS, brain of BALB/c mice
  Fold enrichment over AAV9 in the brain of Mice (BALB/c): 1.336 fold
Brain [2]; RNA NGS, brain of C57Bl/6 mice
  Fold enrichment over AAV9 in the brain of Mice (C57Bl/6): 1.196 fold
[3]; RNA NGS, brain of NHPs
  Fold enrichment over AAV9 in the brain of NHPs: 2.202 fold
[3]; RNA NGS, spinal cord of NHPs
  Fold enrichment over AAV9 in the spinal cord of NHPs: 1.301 fold

## GVVAHQPSGQNQQT
Brain [1]; RNA NGS, brain of BALB/c mice
  Fold enrichment over AAV9 in the brain of Mice (BALB/c): 2.267 fold
Brain [2]; RNA NGS, brain of C57Bl/6 mice
  Fold enrichment over AAV9 in the brain of Mice (C57Bl/6): 0.910 fold
[3]; RNA NGS, brain of NHPs
  Fold enrichment over AAV9 in the brain of NHPs: 2.103 fold
[3]; RNA NGS, spinal cord of NHPs
  Fold enrichment over AAV9 in the spinal cord of NHPs: 0.152 fold

## GVVHITNSGQNQQT
Brain [1]; RNA NGS, brain of BALB/c mice
  Fold enrichment over AAV9 in the brain of Mice (BALB/c): 0.846 fold
Brain [2]; RNA NGS, brain of C57Bl/6 mice
  Fold enrichment over AAV9 in the brain of Mice (C57Bl/6): 0.794 fold
[3]; RNA NGS, brain of NHPs
  Fold enrichment over AAV9 in the brain of NHPs: 1.969 fold
[3]; RNA NGS, spinal cord of NHPs
  Fold enrichment over AAV9 in the spinal cord of NHPs: 0.504 fold

## GVVRNHQSGQNQQT
Brain [1]; RNA NGS, brain of BALB/c mice
  Fold enrichment over AAV9 in the brain of Mice (BALB/c): 0.868 fold
Brain [2]; RNA NGS, brain of C57Bl/6 mice
  Fold enrichment over AAV9 in the brain of Mice (C57Bl/6): 0.899 fold
[3]; RNA NGS, brain of NHPs
  Fold enrichment over AAV9 in the brain of NHPs: 1.116 fold
[3]; RNA NGS, spinal cord of NHPs
  Fold enrichment over AAV9 in the spinal cord of NHPs: 5.801 fold

## GWERSFVSGQNQQT
Brain [1]; RNA NGS, brain of BALB/c mice
  Fold enrichment over AAV9 in the brain of Mice (BALB/c): 0.538 fold
Brain [2]; RNA NGS, brain of C57Bl/6 mice
  Fold enrichment over AAV9 in the brain of Mice (C57Bl/6): 0.490 fold
[3]; RNA NGS, brain of NHPs
  Fold enrichment over AAV9 in the brain of NHPs: 1.492 fold
[3]; RNA NGS, spinal cord of NHPs
  Fold enrichment over AAV9 in the spinal cord of NHPs: 0.943 fold

## GYEVLGSSGQNQQT
Brain [1]; RNA NGS, brain of BALB/c mice
  Fold enrichment over AAV9 in the brain of Mice (BALB/c): 0.319 fold
Brain [2]; RNA NGS, brain of C57Bl/6 mice
  Fold enrichment over AAV9 in the brain of Mice (C57Bl/6): 2.459 fold
[3]; RNA NGS, brain of NHPs
  Fold enrichment over AAV9 in the brain of NHPs: 2.891 fold
[3]; RNA NGS, spinal cord of NHPs
  Fold enrichment over AAV9 in the spinal cord of NHPs: 0.000 fold

## GYFVAAWSGQNQQT
Brain [1]; RNA NGS, brain of BALB/c mice
  Fold enrichment over AAV9 in the brain of Mice (BALB/c): 0.175 fold
Brain [2]; RNA NGS, brain of C57Bl/6 mice
  Fold enrichment over AAV9 in the brain of Mice (C57Bl/6): 0.071 fold
[3]; RNA NGS, brain of NHPs
  Fold enrichment over AAV9 in the brain of NHPs: 4.488 fold
[3]; RNA NGS, spinal cord of NHPs
  Fold enrichment over AAV9 in the spinal cord of NHPs: 0.000 fold

## GYTRLETSGQNQQT
Brain [1]; RNA from brain of BALB/c mice, NGS
  Fold enrichment over AAV9 in the brain of Mice (BALB/c): 0.297 fold
Brain [2]; RNA from brain of C57Bl/6 mice, NGS
  Fold enrichment over AAV9 in the brain of Mice (C57Bl/6): 0.841 fold
[3]; RNA from brain of NHPs, NGS
  Fold enrichment over AAV9 in the brain of NHPs: 1.250 fold
[3]; RNA from spinal cord of NHPs, NGS
  Fold enrichment over AAV9 in the spinal cord of NHPs: 1.323 fold

## KAEHGSGSPHSKAQNQQT
Brain [4]; [6]
  Fold Enrichment relative to AAV9, Brain (Mouse): 116.201 fold
[5]; [7]
  Fold Enrichment relative to AAV9, DRG (NHP): 0.000 fold
[5]; [8]
  Fold Enrichment relative to AAV9, Brain (NHP): 61.830 fold
[5]; [9]
  Fold Enrichment relative to AAV9, Heart (NHP): 0.000 fold
[5]; [10]
  Fold Enrichment relative to AAV9, Liver DNA (NHP): 0.184 fold
[5]; [11]
  Fold Enrichment relative to AAV9, Liver RNA (NHP): 0.772 fold
[5]; [12]
  Fold Enrichment relative to AAV9, Muscle (NHP): 0.000 fold

## KAEMGSGSPHSKAQNQQT
Brain [4]; [6]
  Fold Enrichment relative to AAV9, Brain (Mouse): 135.019 fold
Brain [4]; NGS fold-enrichment, mouse brain
  Fold Enrichment relative to AAV9, Brain (Mouse): 135.019 fold
[5]; NGS fold-enrichment of RNA, NHP brain
  Fold Enrichment relative to AAV9, Brain (NHP): 83.049 fold
[5]; [7]
  Fold Enrichment relative to AAV9, DRG (NHP): 0.000 fold
[5]; NGS fold-enrichment, NHP DRG
  Fold Enrichment relative to AAV9, DRG (NHP): 0.000 fold
[5]; NGS fold-enrichment, NHP heart
  Fold Enrichment relative to AAV9, Heart (NHP): 0.020 fold
[5]; NGS fold-enrichment, NHP liver DNA
  Fold Enrichment relative to AAV9, Liver DNA (NHP): 0.112 fold
[5]; NGS fold-enrichment, NHP liver RNA
  Fold Enrichment relative to AAV9, Liver RNA (NHP): 0.768 fold
[5]; NGS fold-enrichment, NHP muscle
  Fold Enrichment relative to AAV9, Muscle (NHP): 0.000 fold
[5]; [8]
  Fold Enrichment relative to AAV9, Brain (NHP): 83.049 fold
[5]; [9]
  Fold Enrichment relative to AAV9, Heart (NHP): 0.020 fold
[5]; [10]
  Fold Enrichment relative to AAV9, Liver DNA (NHP): 0.112 fold
[5]; [11]
  Fold Enrichment relative to AAV9, Liver RNA (NHP): 0.768 fold
[5]; [12]
  Fold Enrichment relative to AAV9, Muscle (NHP): 0.000 fold

## KAENGSGSPHSKAQNQQT
Brain [4]; mouse brain
  Fold Enrichment relative to AAV9, Brain (Mouse): 120.256 fold
[5]; [13]
  Fold Enrichment relative to AAV9, Brain (NHP): 52.487 fold
[5]; NHP DRG
  Fold Enrichment relative to AAV9, DRG (NHP): 0.000 fold
[5]; NHP heart
  Fold Enrichment relative to AAV9, Heart (NHP): 0.157 fold
[5]; NHP liver, DNA
  Fold Enrichment relative to AAV9, Liver DNA (NHP): 0.242 fold
[5]; NHP liver, RNA
  Fold Enrichment relative to AAV9, Liver RNA (NHP): 0.000 fold
[5]; NHP muscle
  Fold Enrichment relative to AAV9, Muscle (NHP): 0.029 fold

## KAETGSGSPHSKAQNQQT
Brain [4]; mouse brain
  Fold Enrichment relative to AAV9, Brain (Mouse): 132.940 fold
[5]; [13]
  Fold Enrichment relative to AAV9, Brain (NHP): 52.219 fold
[5]; NHP DRG
  Fold Enrichment relative to AAV9, DRG (NHP): 0.000 fold
[5]; NHP heart
  Fold Enrichment relative to AAV9, Heart (NHP): 0.047 fold
[5]; NHP liver, DNA
  Fold Enrichment relative to AAV9, Liver DNA (NHP): 0.188 fold
[5]; NHP liver, RNA
  Fold Enrichment relative to AAV9, Liver RNA (NHP): 0.009 fold
[5]; NHP muscle
  Fold Enrichment relative to AAV9, Muscle (NHP): 0.581 fold
